Experimental findings from ChEMBL document CHEMBL4177738, “Synthesis and evaluation of a class of 1,4,7-triazacyclononane derivatives as iron depletion antitumor agents” (Bioorg Med Chem Lett, 2018) are described below.

Structures are written as SMILES. pIC50: −log10 of the molar value. The source made the active and inactive calls. No cut-off for these calls is given here.

Data set [1] has as its system HepG2. As to the kind of experiment: Antiproliferative activity against human HepG2 cells assessed as reduction in cell viability incubated for 72 hrs by MTT assay. The data set is classed as functional, cell-based. The following applies: HepG2, 72 h.
Data set [2] has as its system L02. As to the kind of experiment: Antiproliferative activity against human LO2 cells assessed as reduction in cell viability at 50 uM incubated for 72 hrs by MTT assay. The following applies: l02, 72 h. The data set is classed as cell-based.
Data set [3] deals with L02. As to the kind of experiment: Increase in cell viability in human LO2 cells at 50 uM incubated for 72 hrs by MTT assay relative to untreated control. Format: functional.
Data set [4] relates to HepG2. As to the kind of experiment: Antiproliferative activity against human HepG2 cells assessed as reduction in cell viability at 50 uM incubated for 72 hrs by MTT assay. The data set is classed as functional. To be noted: HepG2, 72 h.
Data set [5] has as its system HepG2. As to the kind of experiment: Antiproliferative activity against human HepG2 cells assessed as reduction in cell viability at 50 uM incubated for 72 hrs in presence of 50 uM iron chloride by MTT assay. The data set is classed as functional, cell-based.

For the compound `O=C(O)CN(CCN1CCN(CP(=O)(O)O)CCN(CP(=O)(O)O)CC1)CC(=O)O`, the pIC50 with HepG2 [1] was 5.42. The Activity entry in the data set with L02 [2] is “Non-Toxic”. Besides, the “fold change (FC)” value in the data set on L02 [3] is 3 - 8.

As for `Nc1ccc(CCCN(CCN2CCN(CC(=O)O)CCN(CC(=O)O)CC2)CC(=O)O)cc1`, in the data set with HepG2 [1], the pIC50 is 5.82. For the same compound, the Activity entry with L02 [2] was “Non-Toxic”. The “fold change (FC)” value with L02 [3] is reported as 3 - 8.

In the case of `O=C(O)CN1CCN(CCCn2cccc(O)c2=O)CCN(CC(=O)O)CC1`, the pIC50 in the data set with HepG2 [1] was 5.35. Moreover, the Activity result in the data set on L02 [2] was “Non-Toxic”. Besides, in the data set on HepG2 [4], the inhibition at 50 µM amounted to 80%. For the same compound, the “fold change (FC)” value in the data set on L02 [3] was 3 - 8. Besides, the inhibition entry in the data set on HepG2 [5] was “inactive”.

On to `O=C(O)CN(CCN(CC(=O)O)CC(=O)O)CCN(CC(=O)O)CC(=O)O` [PENTETIC ACID], for which the pIC50 with HepG2 [1] was 4.42. In the data set with L02 [2], the Activity result is listed as “Non-Toxic”. Moreover, the inhibition at 50 µM in the data set on HepG2 [4] is 60%. For the same compound, in the data set with HepG2 [5], the inhibition entry was “inactive”.

On to `O=C(O)CN(CCCc1ccc([N+](=O)[O-])cc1)CCN1CCN(CC(=O)O)CCN(CC(=O)O)CC1`, for which the pIC50 with HepG2 [1] was 5.85. Also, the Activity result in the data set with L02 [2] is on record as “Non-Toxic”. In the data set on L02 [3], the “fold change (FC)” value was 3 - 8.

As for `CC(=O)N(O)CCCCCNC(=O)CCC(=O)N(O)CCCCCNC(=O)CCC(=O)N(O)CCCCCN` [DEFEROXAMINE], the pIC50 in the data set with HepG2 [1] is less than 4.00. The Activity entry with L02 [2] is listed as “Non-Toxic”. Besides, the inhibition at 50 µM in the data set with HepG2 [4] amounted to 40%. Also, the inhibition entry in the data set with HepG2 [5] was “inactive”.

Turning to `O=C(O)CN1CCN(CC(=O)O)CCN(CC(Cc2ccc([N+](=O)[O-])cc2)N(CC(=O)O)CC(=O)O)CC1` (stereo not given), the pIC50 in the data set on HepG2 [1] was 5.09. In the data set with L02 [2], the Activity entry was “Non-Toxic”. The “fold change (FC)” value with L02 [3] is reported as 3 - 8.

On to `O=C(O)CN1CCN(CCn2cccc(O)c2=O)CCN(CC(=O)O)CC1`, for which the pIC50 in the data set on HepG2 [1] is 5.16. In addition, in the data set with L02 [2], the Activity result was “Non-Toxic”. Besides, in the data set with HepG2 [4], the inhibition at 50 µM came out at 80%. Moreover, the “fold change (FC)” value in the data set with L02 [3] was 3 - 8. Moreover, the inhibition result in the data set with HepG2 [5] is “inactive”.
